{"source": "the NIST ThermoML archive (doi:10.1021/je050544m)", "assay": "activity coefficient (dimensionless); of the first substance listed, at infinite dilution; xn = mol fraction of the nth substance listed", "conditions": "101 kPa, Liquid, x1 = 0", "note": "± gives the expanded uncertainty stated by the source."}
{"smiles": "CC(C)O", "note": "[propan-2-ol] + CCCCn1cc[n+](C)c1.F[B-](F)(F)F", "values": [{"measurement": "activity coefficient", "setting": "323 K, Chromatography", "value": "2.47 ± 0.11"}, {"measurement": "activity coefficient", "setting": "343 K, Chromatography", "value": "2.17 ± 0.1"}]}
{"smiles": "CCCCCCC", "note": "[heptane] + CCCCCCCC[n+]1ccn(C)c1.F[B-](F)(F)F", "values": [{"measurement": "activity coefficient", "setting": "303 K, Chromatography", "value": "16.7 ± 1.8"}, {"measurement": "activity coefficient", "setting": "323 K, Chromatography", "value": "16.3 ± 1.7"}, {"measurement": "activity coefficient", "setting": "343 K, Chromatography", "value": "15.2 ± 1.6"}]}
{"smiles": "ClC=C(Cl)Cl", "note": "[trichloroethene] + CCn1cc[n+](C)c1.F[B-](F)(F)F", "values": [{"measurement": "activity coefficient", "setting": "323 K, Chromatography", "value": "3.66 ± 0.38"}, {"measurement": "activity coefficient", "setting": "343 K, Chromatography", "value": "3.79 ± 0.4"}]}
{"smiles": "CCc1ccccc1", "note": "[ethylbenzene] + CCCCCCn1cc[n+](C)c1.F[B-](F)(F)F", "values": [{"measurement": "activity coefficient", "setting": "323 K, Chromatography", "value": "3.63 ± 0.38"}, {"measurement": "activity coefficient", "setting": "343 K, Chromatography", "value": "4.05 ± 0.43"}]}
{"smiles": "ClCCCl", "note": "[1,2-dichloroethane] + CCCCn1cc[n+](C)c1.F[B-](F)(F)F", "values": [{"measurement": "activity coefficient", "setting": "323 K, Chromatography", "value": "1.51 ± 0.16"}, {"measurement": "activity coefficient", "setting": "343 K, Chromatography", "value": "1.63 ± 0.17"}]}
{"smiles": "C=CCCCC", "note": "[hex-1-ene] + CCCCCCCC[n+]1ccn(C)c1.F[B-](F)(F)F", "values": [{"measurement": "activity coefficient", "setting": "303 K, Chromatography", "value": "7.92 ± 0.83"}, {"measurement": "activity coefficient", "setting": "323 K, Chromatography", "value": "7.51 ± 0.79"}, {"measurement": "activity coefficient", "setting": "343 K, Chromatography", "value": "7.42 ± 0.78"}]}
{"smiles": "ClC(Cl)Cl", "note": "[trichloromethane] + CCn1cc[n+](C)c1.F[B-](F)(F)F", "values": [{"measurement": "activity coefficient", "setting": "323 K, Chromatography", "value": "0.73 ± 0.08"}, {"measurement": "activity coefficient", "setting": "343 K, Chromatography", "value": "0.84 ± 0.09"}]}
{"smiles": "ClC=C(Cl)Cl", "note": "[trichloroethene] + CCCCn1cc[n+](C)c1.F[B-](F)(F)F", "values": [{"measurement": "activity coefficient", "setting": "323 K, Chromatography", "value": "3.98 ± 0.42"}, {"measurement": "activity coefficient", "setting": "343 K, Chromatography", "value": "4.32 ± 0.45"}]}
{"smiles": "ClCCCl", "note": "[1,2-dichloroethane] + CCn1cc[n+](C)c1.F[B-](F)(F)F", "values": [{"measurement": "activity coefficient", "setting": "323 K, Chromatography", "value": "1.32 ± 0.14"}, {"measurement": "activity coefficient", "setting": "343 K, Chromatography", "value": "1.37 ± 0.14"}]}
{"smiles": "CCOC(C)=O", "note": "[ethyl acetate] + CCCCn1cc[n+](C)c1.F[B-](F)(F)F", "values": [{"measurement": "activity coefficient", "setting": "323 K, Chromatography", "value": "2.86 ± 0.3"}, {"measurement": "activity coefficient", "setting": "343 K, Chromatography", "value": "2.99 ± 0.31"}]}
{"smiles": "CCCCCC", "note": "[hexane] + CCCCCCCC[n+]1ccn(C)c1.F[B-](F)(F)F", "values": [{"measurement": "activity coefficient", "setting": "303 K, Chromatography", "value": "13.2 ± 1.4"}, {"measurement": "activity coefficient", "setting": "323 K, Chromatography", "value": "12.8 ± 1.4"}, {"measurement": "activity coefficient", "setting": "343 K, Chromatography", "value": "12.2 ± 1.3"}]}
{"smiles": "ClC(Cl)Cl", "note": "[trichloromethane] + CCCCn1cc[n+](C)c1.F[B-](F)(F)F", "values": [{"measurement": "activity coefficient", "setting": "323 K, Chromatography", "value": "1.13 ± 0.12"}, {"measurement": "activity coefficient", "setting": "343 K, Chromatography", "value": "1.29 ± 0.13"}]}
{"smiles": "CCCCCCC", "note": "[heptane] + CCCCn1cc[n+](C)c1.F[B-](F)(F)F", "values": [{"measurement": "activity coefficient", "setting": "303 K, Chromatography", "value": "134 ± 14"}, {"measurement": "activity coefficient", "setting": "323 K, Chromatography", "value": "115 ± 12"}, {"measurement": "activity coefficient", "setting": "343 K, Chromatography", "value": "99 ± 10"}]}
{"smiles": "CC(C)CC(C)(C)C", "note": "[2,2,4-trimethylpentane] + CCn1cc[n+](C)c1.F[B-](F)(F)F", "values": [{"measurement": "activity coefficient", "setting": "303 K, Chromatography", "value": "222 ± 23"}, {"measurement": "activity coefficient", "setting": "323 K, Chromatography", "value": "168 ± 18"}, {"measurement": "activity coefficient", "setting": "343 K, Chromatography", "value": "162 ± 17"}]}
{"smiles": "C=CCCCC", "note": "[hex-1-ene] + CCCCCCn1cc[n+](C)c1.F[B-](F)(F)F", "values": [{"measurement": "activity coefficient", "setting": "303 K, Chromatography", "value": "15.9 ± 1.7"}, {"measurement": "activity coefficient", "setting": "323 K, Chromatography", "value": "14.8 ± 1.6"}, {"measurement": "activity coefficient", "setting": "343 K, Chromatography", "value": "14.8 ± 1.6"}]}
{"smiles": "ClCCCl", "note": "[1,2-dichloroethane] + CCCCCCCC[n+]1ccn(C)c1.F[B-](F)(F)F", "values": [{"measurement": "activity coefficient", "setting": "323 K, Chromatography", "value": "0.93 ± 0.09"}, {"measurement": "activity coefficient", "setting": "343 K, Chromatography", "value": "0.95 ± 0.1"}]}
{"smiles": "C1CCCCC1", "note": "[cyclohexane] + CCCCn1cc[n+](C)c1.F[B-](F)(F)F", "values": [{"measurement": "activity coefficient", "setting": "303 K, Chromatography", "value": "44.9 ± 4.7"}, {"measurement": "activity coefficient", "setting": "323 K, Chromatography", "value": "38.4 ± 4"}, {"measurement": "activity coefficient", "setting": "343 K, Chromatography", "value": "32.8 ± 3.5"}]}
{"smiles": "C=CCCCC", "note": "[hex-1-ene] + CCn1cc[n+](C)c1.F[B-](F)(F)F", "values": [{"measurement": "activity coefficient", "setting": "303 K, Chromatography", "value": "46.2 ± 4.9"}, {"measurement": "activity coefficient", "setting": "323 K, Chromatography", "value": "43.2 ± 4.5"}, {"measurement": "activity coefficient", "setting": "343 K, Chromatography", "value": "36.6 ± 3.9"}]}
{"smiles": "CCOC(C)=O", "note": "[ethyl acetate] + CCn1cc[n+](C)c1.F[B-](F)(F)F", "values": [{"measurement": "activity coefficient", "setting": "323 K, Chromatography", "value": "3.08 ± 0.32"}, {"measurement": "activity coefficient", "setting": "343 K, Chromatography", "value": "3.32 ± 0.35"}]}
{"smiles": "CCOC(C)=O", "note": "[ethyl acetate] + CCCCCCn1cc[n+](C)c1.F[B-](F)(F)F", "values": [{"measurement": "activity coefficient", "setting": "323 K, Chromatography", "value": "5.58 ± 0.59"}, {"measurement": "activity coefficient", "setting": "343 K, Chromatography", "value": "5.48 ± 0.58"}]}
{"smiles": "CCCO", "note": "[propan-1-ol] + CCCCCCCC[n+]1ccn(C)c1.F[B-](F)(F)F", "values": [{"measurement": "activity coefficient", "setting": "323 K, Chromatography", "value": "1.44 ± 0.15"}, {"measurement": "activity coefficient", "setting": "343 K, Chromatography", "value": "1.27 ± 0.13"}]}
{"smiles": "c1ccccc1", "note": "[benzene] + CCn1cc[n+](C)c1.F[B-](F)(F)F", "values": [{"measurement": "activity coefficient", "setting": "303 K, Chromatography", "value": "2.42 ± 0.25"}, {"measurement": "activity coefficient", "setting": "323 K, Chromatography", "value": "2.51 ± 0.26"}, {"measurement": "activity coefficient", "setting": "343 K, Chromatography", "value": "2.47 ± 0.26"}]}
{"smiles": "C1CCCCC1", "note": "[cyclohexane] + CCCCCCn1cc[n+](C)c1.F[B-](F)(F)F", "values": [{"measurement": "activity coefficient", "setting": "303 K, Differential ebulliometry", "value": "18.6 ± 1.9"}, {"measurement": "activity coefficient", "setting": "323 K, Differential ebulliometry", "value": "16.5 ± 1.6"}, {"measurement": "activity coefficient", "setting": "343 K, Differential ebulliometry", "value": "15.2 ± 1.5"}]}
{"smiles": "CCO", "note": "[ethanol] + CCn1cc[n+](C)c1.F[B-](F)(F)F", "values": [{"measurement": "activity coefficient", "setting": "323 K, Chromatography", "value": "0.76 ± 0.08"}]}
{"smiles": "ClC=C(Cl)Cl", "note": "[trichloroethene] + CCCCCCCC[n+]1ccn(C)c1.F[B-](F)(F)F", "values": [{"measurement": "activity coefficient", "setting": "323 K, Chromatography", "value": "1.67 ± 0.17"}, {"measurement": "activity coefficient", "setting": "343 K, Chromatography", "value": "1.76 ± 0.18"}]}
{"smiles": "C1CCCCC1", "note": "[cyclohexane] + CCCCCCCC[n+]1ccn(C)c1.F[B-](F)(F)F", "values": [{"measurement": "activity coefficient", "setting": "303 K, Chromatography", "value": "8.52 ± 0.9"}, {"measurement": "activity coefficient", "setting": "323 K, Chromatography", "value": "7.99 ± 0.84"}, {"measurement": "activity coefficient", "setting": "343 K, Chromatography", "value": "7.36 ± 0.77"}]}
{"smiles": "CC(C)=O", "note": "[acetone] + CCCCCCCC[n+]1ccn(C)c1.F[B-](F)(F)F", "values": [{"measurement": "activity coefficient", "setting": "323 K, Chromatography", "value": "0.78 ± 0.08"}, {"measurement": "activity coefficient", "setting": "343 K, Chromatography", "value": "0.83 ± 0.09"}]}
{"smiles": "CCc1ccccc1", "note": "[ethylbenzene] + CCCCn1cc[n+](C)c1.F[B-](F)(F)F", "values": [{"measurement": "activity coefficient", "setting": "323 K, Chromatography", "value": "6.65 ± 0.7"}, {"measurement": "activity coefficient", "setting": "343 K, Chromatography", "value": "7.2 ± 0.76"}]}
{"smiles": "CCCCCC", "note": "[hexane] + CCCCn1cc[n+](C)c1.F[B-](F)(F)F", "values": [{"measurement": "activity coefficient", "setting": "303 K, Chromatography", "value": "93.4 ± 9.8"}, {"measurement": "activity coefficient", "setting": "323 K, Chromatography", "value": "76.5 ± 8.1"}, {"measurement": "activity coefficient", "setting": "343 K, Chromatography", "value": "67.5 ± 7.1"}]}
